Data: PubChem BioAssay (NCI)
Where “and” joins values, the source holds several entries; their conditions need not be identical. Equal entries are not always repeated.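 How tested: cells in 96-well plates exposed to compound for 48 hours at five concentrations. GI50 marks 50% less growth. The concentration for full growth arrest is given as TGI.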

Assays:
Assay in all cases: growth of human tumour cells (NCI), 48 h
786-0 renal = system: 786-0 renal
SK-MEL-5 melanoma = system: SK-MEL-5 melanoma
OVCAR-8 ovarian = system: OVCAR-8 ovarian
SNB-75 CNS = system: SNB-75 CNS
SK-MEL-2 melanoma = system: SK-MEL-2 melanoma
SNB-19 CNS = system: SNB-19 CNS
NCI-H226 lung = system: NCI-H226 lung
OVCAR-3 ovarian = system: OVCAR-3 ovarian
RXF 393 renal = system: RXF 393 renal
A498 renal = system: A498 renal

Row | Structure (SMILES) | GI50 (786-0 renal) | TGI (786-0 renal) [µM] | GI50 (SK-MEL-5 melanoma) | TGI (SK-MEL-5 melanoma) | GI50 (OVCAR-8 ovarian) | TGI (OVCAR-8 ovarian) | GI50 (SNB-75 CNS) | TGI (SNB-75 CNS) | GI50 (SK-MEL-2 melanoma) | TGI (SK-MEL-2 melanoma) | GI50 (SNB-19 CNS) | TGI (SNB-19 CNS) | GI50 (NCI-H226 lung) | TGI (NCI-H226 lung) | GI50 (OVCAR-3 ovarian) | TGI (OVCAR-3 ovarian) | GI50 (RXF 393 renal) | TGI (RXF 393 renal) | GI50 (A498 renal) | TGI (A498 renal)
1 | Clc1nc(Cl)c2c(ncn2C/C=C\Cn2cnc3c(Cl)nc(Cl)nc32)n1 | 2.93 µM | 10.5 | 1.31 µM | 2.79 µM | 1.2 µM | 4.37 µM | 2.19 µM | 6.68 µM | 1.41 µM | 2.73 µM | 1.66 µM | 3.16 µM | 1.76 µM | 3.84 µM | 1.68 µM | 3.04 µM | 0.351 µM | 0.906 µM | 12.4 µM | 25.6 µM
2 | OCCCCCCOc1ccc(-c2cc(-c3ccccn3)nc(-c3ccccn3)c2)cc1 | – | 0.551 | – | 3.48 µM | – | 1.7 µM | – | 3.11 µM | – | 1.13 µM | – | 37.8 µM | – | 1.06 µM | – | 1.32 µM | – | 0.853 µM | – | 5.77 µM
3 | CN(C)CCOc1ccc2c(c1)C/C(=C/c1ncc([N+](=O)[O-])n1C)C2=O | – | 26.4 | – | 3.49 µM | – | 8.01 µM | – | 7.54 µM | – | 3.58 µM | – | 15.3 µM | – | 4.52 µM | – | 6.27 µM | – | 3.69 µM | – | 5.54 µM
4 | COc1cc(-c2cn(-c3ccc(Cl)cc3)c(C)c2C(=O)C(F)(F)F)cc(OC)c1OC | > 100 µM | > 100 | 7.18 µM | > 100 µM | > 100 µM | > 100 µM | 56.9 µM | > 100 µM | > 100 µM | > 100 µM | > 100 µM | > 100 µM | > 100 µM | > 100 µM | > 100 µM | > 100 µM | > 100 µM | > 100 µM | 27.2 µM | > 100 µM
5 | CC(=O)[O-].CC(=O)[O-].[NH2-].[Pt+2].c1ccc2cnccc2c1 | 37.9 µM | > 100 | 38.4 µM | > 100 µM | 3.72 µM | 21.7 µM | > 100 µM | > 100 µM | 36 µM | > 100 µM | > 100 µM | > 100 µM | 47.4 µM | > 100 µM | 42.2 µM | > 100 µM | 0.0522 µM | 24 µM | > 100 µM | > 100 µM
6 | Cc1cc(=O)oc2cc3c(cc12)Oc1ccccc1O3 | – | > 100 | – | > 100 µM | – | > 100 µM | – | 59.9 µM | – | > 100 µM | – | > 100 µM | – | > 100 µM | – | > 100 µM | – | > 100 µM | – | > 100 µM
7 | CCOc1ccc(NCc2cc(OC)c(OC)c(OC)c2)cc1 | – | > 100 | – | 52.9 µM and > 60.6 µM | 5.75 µM and 2.31 µM | > 80.7 µM and 62.6 µM | – | > 100 µM | 2.22 µM and 0.429 µM | > 100 µM | 4.9 µM | > 100 µM | – | > 100 µM | – | 1.65 µM and 2.22 µM | 2.24 µM | – | 1.05 µM and 4.61 µM | > 48 µM and 59.5 µM
8 | Oc1ccc(CCCCCCc2ccc(O)cc2)cc1 | 3.65 µM | 15.1 | 5.27 µM | 17.1 µM | 5.18 µM | 20.2 µM | 11.6 µM | 35.3 µM | 16 µM | 35.5 µM | 12.6 µM | 25.5 µM | 15.7 µM | 32.9 µM | 6.02 µM | 17.8 µM | 8.03 µM | 21.5 µM | 11.4 µM | 23.5 µM
9 | OCc1ccc(-c2nn(Cc3ccccc3)c3ccccc23)o1 | 24 µM and 4.69 µM | > 81.6 | 13.7 µM and 14.2 µM | 26.7 µM and 27.3 µM | 16.3 µM and 20.7 µM | 44.7 µM and 57 µM | 11.7 µM and > 100 µM | 47.2 µM and > 100 µM | 16.6 µM and 30.7 µM | 32.6 µM and > 100 µM | 21.5 µM and 13.7 µM | 96.7 µM and > 52 µM | 0.156 µM and 0.114 µM | 0.346 µM and 0.371 µM | 1.35 µM and 1.71 µM | 9.8 µM and 13.4 µM | 7.94 µM and 14.8 µM | 30.7 µM and 38 µM | 0.092 µM and 0.0445 µM | 0.25 µM and 0.144 µM
